# Laboratory results from patent US12678419B2, “Compounds” (Sitryx Therapeutics Limited, priority 2020, dated 2026).
# Counter-ions that a name gives are not always drawn.
# What was measured:
# [1] = system: IL-1β cytokine output from THP-1s; assay: THP-1 AlphaLISA IL-1β cytokine assay; assay type: cell-based
# Description: (§1) The cytokine inhibition profiles of compounds of formula (I) were determined in a differentiated THP-1 cell assay. All assays were performed in RPMI-1640 growth medium (Gibco), supplemented with 10% fetal bovine serum (FBS; Gibco), 1% penicillin-streptomycin and 1% sodium pyruvate unless specified otherwise. The IL-1β and IL-6 cytokine inhibition assays were each run in a background of differentiated THP-1 cells as described below. All reagents described were from Sigma-Aldrich unless specified otherwise. Compounds were prepared as 10 mM DMSO stocks.
# (§2) THP-1 cells were expanded as a suspension up to 80% confluence in appropriate growth medium. Cells were harvested, suspended, and treated with an appropriate concentration of phorbol 12-myristate 13-acetate (PMA) over a 72 hr period (37° C./5% CO2).
# (§3) Following 72 hrs of THP-1 cell incubation, cellular medium was removed and replaced with fresh growth media containing 1% of FBS. Working concentrations of compounds were prepared separately in 10% FBS treated growth medium and pre-incubated with the cells for 30 minutes (37° C./5% CO2). Following the 30 minute compound pre-incubation, THP-1s were treated with an appropriate concentration of LPS and the THP-1s were subsequently incubated for a 24 hr period (37° C./5% CO2). An appropriate final concentration of Nigericin was then dispensed into the THP-1 plates and incubated for 1 hour (37° C./5% CO2) before THP-1 supernatants were harvested and collected in separate polypropylene 96-well holding plates.
# (§4) Reagents from each of the IL-1β and IL-6 commercial kits (Perkin Elmer) were prepared and run according to the manufacturer's instructions. Subsequently, fluorescence signal detection in a microplate reader was measured (EnVision® Multilabel Reader, Perkin Elmer).
# (§5) Percentage inhibition was calculated per cytokine by normalising the sample data to the high and low controls used within each plate (+/− LPS respectively). Percentage inhibition was then plotted against compound concentration and the 50% inhibitory concentration (IC50) was determined from the resultant concentration-response curve.
# human hepatocytes = assay: Hepatocyte stability assay, human; assay type: in vitro ADME; conditions: 10 μM compound
# Text: (§6) Defrosted cryo-preserved hepatocytes (viability >70%) were used to determine the metabolic stability of a compound via calculation of intrinsic clearance (Clint; a measure of the removal of a compound from the liver in the absence of blood flow and cell binding). Clearance data are particularly important for in vitro work as they can be used in combination with in vivo data to predict the half-life and oral bioavailability of a drug.
# (§7) The metabolic stability in hepatocytes assay involves a time-dependent reaction using both positive and negative controls. The cells were pre-incubated at 37° C. and spiked with test compound (and positive control); samples were taken at pre-determined time intervals were analysed to monitor the change in concentration of the initial drug compound over 60 minutes. A buffer incubation reaction (with no hepatocytes present) acted as a negative control and two cocktail solutions, containing compounds with known high and low clearance values (verapamil/7-hydroxycoumarin and propranolol/diltiazem), acted as positive controls. • 1. The assay was run with a cell concentration of 0.5×10^6 cells/mL in Leibovitz buffer. • 2. All compounds and controls were run in duplicate. • 3. Compound concentration was 10 μM. • 4. All compounds and controls were incubated with both cells and buffer to show turnover was due to hepatic metabolism. • 5. All wells on the incubation plate had 326.7 μL of either cells or buffer added. • 6. Prior to assay, cell and buffer-only incubation plates were preincubated for 10 mins at 37° C. • 7. The assay was initiated by adding compounds, 3.3 μL of 1 mM in 10% DMSO-90% Buffer; final DMSO concentration was 0.1%. • 8. Samples were taken at regular timepoints (0, 5, 10, 20, 40, 60 min) until 60 mins. • 9. Sample volume was 40 μL and was added to 160 μL of crash solvent (acetonitrile with internal standard) and stored on ice. • 10. At the end of the assay, the crash plates were centrifuged at 3500 rpm for 20 mins at 4° C. • 11. 80 μL of clear supernatant was removed and mixed with 80 μL of deionised water before being analysed by LC-MS/MS.
# (§8) Raw LC-MS/MS data was exported to, and analysed in, Microsoft Excel for determination of intrinsic clearance. The percentage remaining of a compound was monitored using the peak area of the initial concentration as 100%. Intrinsic clearance and half-life values were calculated using a graph of the natural log of percentage remaining versus the time of reaction in minutes. Half-life (min) and intrinsic clearance (Clint in μL min^−1 10^−6 cells) values were calculated using the gradient of the graph (the elimination rate constant, k) and Equations 1 and 2.
# mouse hepatocytes = assay: Hepatocyte stability assay, mouse; assay type: in vitro ADME; conditions: 10 μM compound
# Text: as §6, §7, §8
# [2] = system: IL-6 cytokine output from THP-1s; assay: THP-1 AlphaLISA IL-6 cytokine assay; assay type: cell-based; conditions: LPS then nigericin, Table 1
# Description: as §1, §2, §3, §4, §5
# [3] = system: NRF2 (nuclear factor erythroid 2-related factor 2); assay: NRF2 +/-GSH activation assay (DiscoverX PathHunter NRF2 translocation kit, U2OS cells); assay type: cell-based; conditions: for Emax (%) +GSH / Emax (%) −GSH: normalised to dimethyl fumarate high control
# [4] = differentiated THP-1 cells, LPS then nigericin, Table 1
# [5] = Homo sapiens, THP-1, differentiated THP-1 cells, LPS then nigericin, Table 1
# [6] = Homo sapiens, THP-1, differentiated THP-1 cells
# [7] = Homo sapiens, THP-1, differentiated THP-1 cells, Table 2, compounds of formula (XVI)
# [8] = differentiated THP-1 cells, Table 2, compounds of formula (XVI)
SMILES,"IC50 [1, 4] [µM]",Clint (μL min^−1 10^−6 cells) (human hepatocytes),T½ (human hepatocytes) [min],Clint (μL min^−1 10^−6 cells) (mouse hepatocytes),T½ (mouse hepatocytes) [min],EC50 ([3]; +GSH) [µM],Emax (%) +GSH ([3]; +GSH) [%],EC50 ([3]; −GSH) [µM],Emax (%) −GSH ([3]; −GSH) [%],"IC50 [1, 5] [µM]",other results
"C=C(CC(=O)OC1CCc2cc(Br)c(OC)cc21)C(=O)OCC(=O)O (single isomer, unassigned; enantiomer 2) [Example 13, 2-((4-((5-bromo-6-methoxy-2,3-dihydro-1H-inden-1-yl)oxy)-2-methylene-4-oxobutanoyl)oxy)acetic acid (Enantiomer 2)]",34.9,–,–,–,–,–,–,–,–,–,–
"C=C(CC(=O)OC1CCc2cc(Cl)cc(Cl)c2C1)C(=O)OCC(=O)O (single isomer, unassigned; enantiomer 2) [Example 11, 2-((4-((6,8-dichloro-1,2,3,4-tetrahydronaphthalen-2-yl)oxy)-2-methylene-4-oxobutanoyl)oxy)acetic acid (Enantiomer 2)]",6.1,24,62,311,5,–,–,–,–,–,–
"C=C(CC(=O)OC1CCc2ccc(OC(F)(F)F)cc21)C(=O)OCC(=O)O (single isomer, unassigned; enantiomer 2) [Example 30, 2-((2-methylene-4-oxo-4-((6-(trifluoromethoxy)-2,3-dihydro-1H-inden-1-yl)oxy)butanoyl)oxy)acetic acid (Enantiomer 2)]",7.9,19,81,393,4,28.7,182,21.6,225,–,IC50 ([2]; differentiated THP-1 cells): 20.6 µM
"C=C(CC(=O)OC1CCc2cc(Br)c(OC)cc21)C(=O)OCC(=O)O (single isomer, unassigned; enantiomer 1) [Example 12, 2-((4-((5-bromo-6-methoxy-2,3-dihydro-1H-inden-1-yl)oxy)-2-methylene-4-oxobutanoyl)oxy)acetic acid (Enantiomer 1)]",–,–,–,–,–,–,–,–,–,46.4,–
"C=C(CC(=O)OC)C(=O)OC [dimethyl itaconate, reference compound]",–,–,–,–,–,–,–,–,–,> 100,"IC50 [2, 6]: > 100 µM; IC50 [1, 7]: > 100 µM"
"C=C(CC(=O)OC1CCc2cc(C(F)(F)F)ccc21)C(=O)O (stereo not drawn) [Intermediate 37, 2-methylene-4-oxo-4-((5-(trifluoromethyl)-2,3-dihydro-1H-inden-1-yl)oxy)butanoic acid]",–,–,–,–,–,–,–,–,–,–,"IC50 [1, 7]: 18.3 µM"
"C=C(CC(=O)OC1CCc2c(Br)cc(F)cc21)C(=O)OCC(=O)O (single isomer, unassigned; enantiomer 2) [Example 16, 2-((4-((4-bromo-6-fluoro-2,3-dihydro-1H-inden-1-yl)oxy)-2-methylene-4-oxobutanoyl)oxy)acetic acid (Enantiomer 2)]",2.6,15,95,>460,<3,–,–,–,–,–,–
"COC(=O)/C=C/C(=O)OC [dimethyl fumarate, reference compound]",–,–,–,–,–,> 100,19,6,100,14.4,"IC50 [2, 6]: 9.3 µM"
"C=C(CC(=O)OC1CCc2cc(Cl)cc(Cl)c21)C(=O)OCC(=O)O (single isomer, unassigned; enantiomer 2) [Example 9, 2-((4-((5,7-dichloro-2,3-dihydro-1H-inden-1-yl)oxy)-2-methylene-4-oxobutanoyl)oxy)acetic acid (Enantiomer 2)]",11.7,4,428,61,21,20.6,204,8.1,244,–,–
"C=C(CC(=O)OC1CCc2c(Cl)cc(F)cc21)C(=O)OCC(=O)O (single isomer, unassigned; enantiomer 1) [Example 19, 2-((4-((4-chloro-6-fluoro-2,3-dihydro-1H-inden-1-yl)oxy)-2-methylene-4-oxobutanoyl)oxy)acetic acid (Enantiomer 1)]",–,4,335,37,41,10.1,48,18.1,224,2.2,–
"C=C(CC(=O)OC1CCc2cc(Cl)cc(Cl)c21)C(=O)OCC(=O)O (single isomer, unassigned; enantiomer 1) [Example 8, 2-((4-((5,7-dichloro-2,3-dihydro-1H-inden-1-yl)oxy)-2-methylene-4-oxobutanoyl)oxy)acetic acid (Enantiomer 1)]",–,15,106,316,4,16.4,264,4.8,268,10.6,–
"C=C(CC(=O)OC1CCc2cc(Cl)c(Cl)cc21)C(=O)OCC(=O)O (single isomer, unassigned; enantiomer 2) [Example 6, 2-((4-((5,6-dichloro-2,3-dihydro-1H-inden-1-yl)oxy)-2-methylene-4-oxobutanoyl)oxy)acetic acid (Enantiomer 2)]",9.9,8,207,69,19,17.4,215,8.3,242,–,–
"C=C(CC(=O)OCCCCCCCC)C(=O)O [4-octyl itaconate, reference compound]",–,401,4,351,4,–,–,–,–,–,–
"C=C(CC(=O)OC1CCc2c(Cl)cc(Cl)cc21)C(=O)O (single isomer, unassigned; enantiomer 1) [Intermediate 25, 4-((4,6-dichloro-2,3-dihydro-1H-inden-1-yl)oxy)-2-methylene-4-oxobutanoic acid Enantiomer 1]",–,–,–,–,–,–,–,–,–,–,"IC50 [1, 7]: 43.2 µM"
"C=C(CC(=O)OC1CCCc2cc(C(F)(F)F)ccc21)C(=O)O (single isomer, unassigned; enantiomer 2) [Intermediate 41, 2-methylene-4-oxo-4-((6-(trifluoromethyl)-1,2,3,4-tetrahydronaphthalen-1-yl)oxy)butanoic acid (Enantiomer 2)]",–,–,–,–,–,–,–,–,–,–,"IC50 [1, 8]: 31.7 µM"
"C=C(CC(=O)OC1CCCc2cc(C(F)(F)F)ccc21)C(=O)O (single isomer, unassigned; enantiomer 1) [Intermediate 40, 2-methylene-4-oxo-4-((6-(trifluoromethyl)-1,2,3,4-tetrahydronaphthalen-1-yl)oxy)butanoic acid (Enantiomer 1)]",–,–,–,–,–,–,–,–,–,–,"IC50 [1, 8]: 5.3 µM"
